Laboratory results from the supplement of paper PMC10307832.

Key:
[1] = compound: C=CC(=O)N1CCC[C@@H](n2nc(-c3ccc(Oc4ccccc4)cc3)c3c(N)ncnc32)C1 [Ibrutinib]; experiment: relative viability (nuclei count vs DMSO), 5 days (fraction); higher = more cells survive
Outline: (§1)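 Nuclei counted with MetaXpress define viability as the ratio of treated to vehicle wells, given as a median across plates. The lung cancer cell lines were in 1536-well plates, pinned with five √10-spaced library-drug doses and imaged at 4× after 5 days and Hoechst staining. Plates passed with control CV below 25% and at least one doubling.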

[2] = compound: C=CC(=O)Nc1cc(-n2c(=O)ccc3cnc4ccc(-c5ccc(NS(C)(=O)=O)cc5)cc4c32)ccc1C [BMX-IN-1]; experiment: as above
Outline: as §1

Cell Line	relative viability ([1]; 0.01581 µM)	relative viability ([1]; 0.05 µM)	relative viability ([1]; 0.1581 µM)	relative viability ([1]; 0.5 µM)	relative viability ([2]; 0.02 µM)	relative viability ([2]; 0.2 µM)	relative viability ([2]; 0.6325 µM)	relative viability ([2]; 2 µM)	relative viability ([1]; 0.005 µM)
NCI-H1355	0.975	1.02	0.826	0.843	1.03	1.06	1.11	1.12	–
LK-2	0.912	0.956	0.929	0.949	1.31	1.24	0.978	1.02	0.936
NCI-H1650	0.841	0.76	0.79	0.706	1	0.896	1.01	0.772	0.793
NCI-H838	0.893	0.986	0.938	0.948	1.25	0.957	1.02	0.989	0.923
EMC-BAC-2	1.01	0.739	–	0.96	1	1.13	1.07	0.95	0.897
SW 1573	0.924	–	0.94	0.974	1.13	1.08	1.09	0.904	0.912
CAL-12T	0.907	0.902	0.932	0.678	1.08	0.995	1.03	0.989	0.824
NCI-H2009	0.971	0.978	0.962	1.09	1.08	1.07	1.09	1.02	1.14
HARA	0.965	0.689	0.793	0.457	1.05	1.04	1.08	1.08	0.976
HCC-827	1.01	1.08	1.02	0.868	1.05	1.06	1.09	1.04	–
EBC-1	0.947	0.922	0.97	1.06	1.06	0.952	1.14	0.964	1.09
NCI-H647	0.855	0.86	0.876	0.879	1.32	1.07	0.957	0.96	0.724
A549	0.891	1	0.988	0.935	1.17	1.17	1.05	1.07	0.884
NCI-H661	0.957	0.868	0.96	0.601	0.967	1.03	1.01	0.933	0.95
NCI-H1651	0.93	0.913	0.923	1.03	1.11	1.08	1.07	0.991	0.931
HCC-78	0.97	0.916	0.748	0.691	1.01	1.08	1.02	0.952	0.904
NCI-H2085	0.974	0.902	0.882	0.905	1.03	0.997	1	1.01	0.997
NCI-H2228	0.752	1.1	0.872	0.868	1.2	1.18	0.975	1.05	1.01
LU99A	0.884	0.892	1.06	0.939	0.986	0.95	1.06	0.962	0.992
